Measured values: ChEMBL document CHEMBL1138357 (J Med Chem, 2007)
Activity calls are given as the source filed them. No cut-off for these calls is given here.

Columns and labels:
[1] = target: Melatonin receptor type 1A (Homo sapiens, UniProt P48039); assay: Displacement of 2-[125I]iodomelatonin from human cloned MT1 receptor expressed in […] NIH3T3 cells; format: cell-based
[2] = target: T1, Melatonin receptor type 1B (Homo sapiens, UniProt P49286); assay: Displacement of 2-[125I]iodomelatonin from human cloned MT2 receptor expressed in […] NIH3T3 cells; format: cell-based
T1 sequence (P49286 whole entry): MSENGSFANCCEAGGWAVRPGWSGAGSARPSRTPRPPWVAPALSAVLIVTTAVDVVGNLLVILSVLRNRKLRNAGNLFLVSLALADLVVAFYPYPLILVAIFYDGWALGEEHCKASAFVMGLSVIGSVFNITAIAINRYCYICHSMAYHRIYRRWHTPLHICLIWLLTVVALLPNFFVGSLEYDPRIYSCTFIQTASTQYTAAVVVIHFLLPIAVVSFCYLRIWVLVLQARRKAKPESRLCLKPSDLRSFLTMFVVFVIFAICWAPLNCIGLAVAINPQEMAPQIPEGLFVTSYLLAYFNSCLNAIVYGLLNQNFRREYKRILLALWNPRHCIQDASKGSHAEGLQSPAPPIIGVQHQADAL

[3] = test system: Rattus norvegicus; assay: Sleep promoting activity in rat assessed as increase of paradoxical sleep latency at 40 mg/kg, sc; format: functional, organism-based; parameters: dose 40 mg/kg
[4] = test system: Rattus norvegicus; assay: Sleep promoting activity in rat assessed as increase in duration of slow wave sleep at 40 mg/kg, sc; format: functional, organism-based; parameters: dose 40 mg/kg
[5] = test system: Rattus norvegicus; assay: Sleep promoting activity in rat assessed as decrease in latency at 40 mg/kg, sc; format: functional, organism-based; parameters: dose 40 mg/kg
[6] = species on record: Rattus norvegicus; assay: Anxiolytic activity in Sprague-Dawley rat by elevated plus maze test; format: functional, organism-based

Sequence of Melatonin receptor type 1A (P48039 whole entry): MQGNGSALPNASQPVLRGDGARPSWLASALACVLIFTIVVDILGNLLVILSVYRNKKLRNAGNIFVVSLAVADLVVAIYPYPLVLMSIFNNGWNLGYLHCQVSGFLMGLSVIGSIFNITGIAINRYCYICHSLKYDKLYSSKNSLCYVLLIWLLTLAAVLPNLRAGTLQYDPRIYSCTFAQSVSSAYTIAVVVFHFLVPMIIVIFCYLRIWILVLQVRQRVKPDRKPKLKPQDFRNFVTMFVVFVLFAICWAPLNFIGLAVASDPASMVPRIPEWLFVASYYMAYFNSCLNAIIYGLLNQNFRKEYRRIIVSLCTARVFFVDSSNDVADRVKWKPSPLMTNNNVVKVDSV

Row | Ki [1] [nM] | Ki [2] [nM] | SMILES | also measured
1 | 324 |  | COc1cccc(N(CCNC(=O)C2CCC2)c2ccccc2)c1 | 
2 |  | 7.41 | COc1cccc(NCCNC(C)=O)c1 | 
3 |  |  | COc1cccc(N(CCNC(C)=O)c2ccccc2)c1 | Activity [3]: Active; Activity [4]: Active; Activity [5]: Active; Activity [6]: Active
4 | 7.24 | 12.6 | COc1cccc(OCCNC(C)=O)c1 | 
